From patent US20100099640A1, “TISSUE DEGENERATION PROTECTION” (priority 2007, published 2010) come the findings set out here.

Each structure is given as a SMILES string.

This data set can be described thus: Analysis of steviol metabolites in 24 h human urine after oral stevioside. The class given is in vivo. How it is done: Urine Fractionation and Derivatisation of steviol containing fractions. The total 24 h urine fraction (between 1124 and 2494 mL) form human subject subjected to a steviol treatment (three days of oral stevioside administration (750 mg per day)) was run over an Amberlite XAD-2 column at about 30 mL/min. The column bed volume was 200 mL which is sufficient for the adsorption of all amphipathic molecules in 24 h urine. The columns were then rinsed with 1 L of distilled water and then eluted with 400 mL MeOH:Acetone (50:50, v/v). The eluate was divided into 4 equal fractions and the solvent was evaporated at reduced pressure at 50° C.
Fractions containing steviol and/or dihydroisosteviol used as internal standard were completely dried; the residues were taken up in dry acetone and derivatized to form the 7-methoxy-coumarinyl esters as described (Minne, V. et al. J. Agr. Food Chem., 2004, 52, 2445-2449). […] After evaporation of the solvent, the residue was dissolved in a known amount of MeOH and HPLC was done using a fluorescence detector (λexc.: 321 nm, λem.: 391 nm) (Minne, V. et al. J. Agr. Food Chem., 2004, 52, 2445-2449). […]
Isolation of larger amounts of steviol glucuronide. […] Samples of each fraction were analysed by TLC using ethyl acetate:ethanol:water (80:30:20) as solvent and compared with steviol glucuronide as a reference compound. […]

`C=C1C[C@@]23CC[C@H]4C(C)(CCC[C@@]4(C)C(=O)O[C@@H]4O[C@H](CO)C(O)[C@H](O)C4O)[C@@H]2CCC1(OC1O[C@H](CO)C(O)C(O)C1OC1O[C@H](CO)C(O)[C@H](O)C1O)C3` (stereo in doubt) [stevioside, Kaur-16-en-18-oic acid, 13-[(2-O-b-D-glucopyranosyl-b-D-glucopyranosyl)oxy]-, b-D-glucopyranosyl ester, (4a)-]: where the note is “after oral stevioside, human urine”, the “free steviol in urine” value is given as “no free steviol can be detected”. In addition, the “metabolite detected in the collected urine” value (three days of oral stevioside (750 mg per day), 24 h urine) is recorded as “steviol glucuronide was isolated as the only metabolite detected”.
